Entries after “also recorded” stand apart in the source; their conditions may differ.
Key:
[1] = molecular target: T1, ITK (Homo sapiens, UniProt Q08881); assay: Jump dilution assay; assay type: binding; design: purchased Invitrogen; settings: for reversibility of ITK inhibition on dilution: dilution into competitive probe
T1 sequence (Q08881 1-620): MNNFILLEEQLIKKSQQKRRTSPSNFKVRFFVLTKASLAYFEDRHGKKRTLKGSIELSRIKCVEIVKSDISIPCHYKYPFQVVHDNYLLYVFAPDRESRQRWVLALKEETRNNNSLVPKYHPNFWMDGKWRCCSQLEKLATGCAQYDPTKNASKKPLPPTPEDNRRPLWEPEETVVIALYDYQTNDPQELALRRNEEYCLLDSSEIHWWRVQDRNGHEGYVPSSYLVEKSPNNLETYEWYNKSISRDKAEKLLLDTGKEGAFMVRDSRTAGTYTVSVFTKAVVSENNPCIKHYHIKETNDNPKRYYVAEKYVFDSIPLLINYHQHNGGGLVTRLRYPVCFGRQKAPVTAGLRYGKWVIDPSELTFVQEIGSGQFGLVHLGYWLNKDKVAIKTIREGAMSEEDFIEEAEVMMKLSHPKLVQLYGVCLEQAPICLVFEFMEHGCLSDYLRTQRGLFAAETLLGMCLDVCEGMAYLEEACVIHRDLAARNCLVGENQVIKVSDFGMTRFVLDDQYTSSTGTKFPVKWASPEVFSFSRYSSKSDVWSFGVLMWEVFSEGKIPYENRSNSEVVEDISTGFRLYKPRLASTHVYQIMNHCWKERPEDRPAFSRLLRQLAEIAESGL
Method: The assay format is similar to the Competitive Tracer-binding Assay and relies on the reversible binding of tracer 236 to recombinant tagged human ITK. […] The mixture was then filtered through a desalting column (Thermo Scientific, Zeba Spin Desalting Column, 40K MWCO) to remove unbound inhibitor. The assay was initiated immediately after the desalting step by diluting the eluate containing the inhibited kinase complex 50-fold into a solution of anti-tag antibody (2 nM final) and excess tracer 236 (40 nM final). Dissociation of inhibitor and binding of tracer was monitored immediately after assay initiation using an EnVision plate reader (excitation 340 nm, dual emission at 665 nm and 615 nm). Reagents including GST-tagged recombinant human ITK, Kinase tracer 236, Lanthascreen Eu-Anti-GST antibody and kinase buffer A were purchased from ThermoFisher Scientific/Invitrogen. Each data point represents the mean of technical triplicates. Equation 3 was fitted to the BMS-509744 data to obtain the rate constant using GraphPad Prism from which the half-life was calculated.

[2] = system: human kinome; assay: Human kinome profiling at 1.0 μM; assay type: biochemical
[3] = system: colitis in C.B-17 SCID mice; assay: Mouse T cell adoptive transfer colitis model; assay type: in vivo
Method: To enable long-term dosing in animal studies, a CPI-818-formulated mouse diet (300 mg/kg/day), and a control diet, with macronutrient levels matching the common Teklad 2018 diet were created (Research Diets, Inc.). Adequate drug exposure was confirmed by standard LC-MS method in plasma samples. Female BALB/c mice (11-12 weeks old) and female Fox Chase C.B-17 severe combined immunodeficient (SCID) mice (6-7 weeks old) were purchased from Charles River Laboratories. […] A third group on control diet was treated weekly via intraperitoneal (IP) route with 0.5 mg/mouse of anti-IL-12 p40 (clone C17.8) (BioXcell BE0051). On study day 0, SCID mice were injected IP with 4×10^5 CD4^+CD45RB^hi splenic T cells from BALB/c mice. On study day 48, animals were sacrificed. Colons were harvested for measurements. The distal section was preserved in 10% neutral buffered formalin, embedded into paraffin blocks, and sent to HistoTox Labs, Inc. for histologic analyses. Therapeutic efficacy was based on body weights, colon weights, and colon lengths. This study was carried out at Bolder BioPATH, Inc. in accordance with the test facility standard operating procedures, the World Health Organization Quality Practices in Basic Biomedical Research guidelines, and in compliance with all state and federal regulations.
Each slide containing 3 cross sections of the distal colon from each animal was stained with hematoxylin and eosin (H&E), or with an anti-CD3 antibody, and evaluated by a board-certified veterinary pathologist blinded to treatment information. Histologic lesions in H&E-stained slides were scored separately for severity 0-5, where 0=absent, 1=minimal, 2=mild, 3=moderate, 4=marked, 5=severe. Anti-CD3-stained slides were scanned using an Aperio AT2 whole slide scanner. Exclusions were applied to remove debris and tissue artifacts from the analyzed area. An algorithm was applied to the samples using Visiopharm (VIS) image analysis software. A count-based thresholding method was utilized to determine positivity of each pixel on the slide. The average of the three colon samples per slide was taken to determine both the number of immunolabeled CD3 cells and the total area of the colon. The output images underwent a quality control check after analysis was complete. CD3-immunolabeled cell density was calculated per 10,000 μm^2 using the following formula: […]
The body weights over time between two groups of animals were compared using the two-way analysis of variance (2-way ANOVA) method. Organ weights or lengths were compared using a Student's unpaired, two-tailed, t-test with Welch's correction. All statistical analyses were performed using Prism Version 8.3.0 (GraphPad Software).

`C=CC(=O)N1CCCN(C(=O)c2cc(Sc3cnc(NC(=O)C4CC4)s3)c(C)cc2OC)C[C@H]1C` [CPI-818] was tested, and the “persistence of blockade of tracer binding to ITK” value ([1]; after jump dilution) was “greater than 24 h”, the “reversibility of ITK inhibition on dilution” value [1] was “did not dissociate upon dilution” and the “reversibility of ITK inhibition on dilution” value ([1]; listed as CP-818) was “irreversible”. For the same molecule, the “number of kinases inhibited ≥65%” value [2] was “eight”, the “protection from colitis (diarrhea, weight loss)” value ([3]; diet 300 mg/kg/day from one week before transfer) was “protected from colitis” and the “infiltration of CD3+ T cells in colon” value ([3]; histology) was “blocked the infiltration of CD3^+ T cells; also recorded: prevented infiltration of CD3+ T cells”. For the same molecule, the “severity of histologic lesions” value ([3]; inflammation, mucosal necrosis, epithelial hyperplasia, submucosa edema) was “significantly reduced the severity” and the “colon weights and lengths” value ([3]; necropsy 7 weeks post-transfer) was “within the ranges of naïve animals”.
